Assay results taken from article PMC10287695, “Non-covalent inhibitors of thioredoxin glutathione reductase with schistosomicidal activity in vivo” (Nature Communications, 2023).
Several values for one entry are separate records, joined by “and”; a condition that tells them apart may be missing. Equal values may be shown once. Read-outs that look alike come from different tables or passages of the source.

How the values were obtained:
TGR [1] = target: T1, TGR (Schistosoma mansoni, UniProt Q962Y6); type: biochemical, S. mansoni; settings: for mode of inhibition (NADPH varied): steady state
T1 construct: made in house
T1 sequence (Q962Y6 1-598): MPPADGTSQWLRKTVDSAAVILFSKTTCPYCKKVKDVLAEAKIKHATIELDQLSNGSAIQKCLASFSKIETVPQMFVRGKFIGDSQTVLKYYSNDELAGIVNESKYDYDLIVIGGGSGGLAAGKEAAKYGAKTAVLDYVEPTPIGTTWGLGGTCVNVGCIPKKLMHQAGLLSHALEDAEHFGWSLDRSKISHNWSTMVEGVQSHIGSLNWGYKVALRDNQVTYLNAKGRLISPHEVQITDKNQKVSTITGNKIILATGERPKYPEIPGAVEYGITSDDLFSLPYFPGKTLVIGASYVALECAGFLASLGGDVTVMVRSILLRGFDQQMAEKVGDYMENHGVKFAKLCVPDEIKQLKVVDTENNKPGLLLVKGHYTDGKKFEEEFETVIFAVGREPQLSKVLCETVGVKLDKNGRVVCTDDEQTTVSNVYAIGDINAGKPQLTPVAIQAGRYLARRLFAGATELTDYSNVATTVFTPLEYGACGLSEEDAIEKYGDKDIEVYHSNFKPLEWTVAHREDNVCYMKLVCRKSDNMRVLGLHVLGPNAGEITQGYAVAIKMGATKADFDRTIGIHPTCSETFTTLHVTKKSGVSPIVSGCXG
Description: Master mixes with varying concentrations of NADPH were made, each with 2 nM TGR in reaction buffer. Inhibitor (2 µl) was added to a 96 well microplate in triplicate for each NADPH and inhibitor concentration, and 192 µl of the master buffer was added to each well. The reaction incubated for 15 min and 6 µl of 50 mM DTNB was added to each well. The kinetic rate was measured at A412 for 5 min.

TGR [2] = target: T1, TGR; assay: NADPH dependence of inhibition; type: biochemical; set-up: unit not given here; settings: panel b, replicates
Description: TGR was incubated at room temperature with inhibitor in the presence or absence of 100 µM NADPH for 15 min. DTNB (3 mM) and NADPH (100 µM) were added, and the reaction was monitored at A412 for 5 min to determine reaction rate. The assay was done in triplicate.

TGR [3] = target: T2, TGR (Schistosoma mansoni, UniProt Q962Y6, X597U); assay: NADPH consumption (oxidase activity); type: biochemical, S. mansoni; settings: replicates
T2 construct: made in house
How it was run: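 Enzyme (500 nM) preincubated 30 min with compound (TRi-1, Stattic 50 µM; AF 20 µM) and 100 µM NADPH, desalted, then mixed with 100 µM NADPH; NADPH consumption read at 340 nm. Other compounds (50 µM) run without desalting, preincubation 30 min or 2 h.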

TGR [4] = target: T2, TGR; assay: Superoxide production (pyrogallol red); type: biochemical, S. mansoni; settings: replicates
How it was run: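 TGR (500 nM) with 100 µM NADPH and 20–50 µM inhibitor was preincubated at room temperature for 30 min or 2 h. Samples were then added to 50 µM pyrogallol red with 300 µM NADPH, ± SOD, and A340/A540 were followed for 2 h.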

[5] = inhibitor 3 µM, NADPH 3 (unit not given)
[6] = inhibitor 3 µM, NADPH 10 (unit not given)
[7] = inhibitor 3 µM, NADPH 30 (unit not given)
[8] = inhibitor 3 µM, NADPH 100 (unit not given)
[9] = inhibitor 3 µM, NADPH 300 (unit not given)
[10] = inhibitor 10 µM, NADPH 3 (unit not given)
[11] = inhibitor 10 µM, NADPH 10 (unit not given)
[12] = inhibitor 10 µM, NADPH 30 (unit not given)
[13] = inhibitor 10 µM, NADPH 100 (unit not given)
[14] = inhibitor 10 µM, NADPH 300 (unit not given)
[15] = inhibitor 30 µM, NADPH 3 (unit not given)
[16] = inhibitor 30 µM, NADPH 10 (unit not given)
[17] = inhibitor 30 µM, NADPH 30 (unit not given)
[18] = inhibitor 30 µM, NADPH 100 (unit not given)
[19] = inhibitor 30 µM, NADPH 300 (unit not given)

Cc1oc(C2CCCCC2)nc1C(=O)N[C@@H]1C[C@@H]2C[C@H]([C@H]1C)C2(C)C [Compound 7]
Vmax (TGR [1]; 3 µM fast inhibitor): 0.037 ± 0.0031 ΔA412/min | Vmax (TGR [1]; 10 µM fast inhibitor): 0.023 ± 0.0006 ΔA412/min | Vmax (TGR [1]; 30 µM fast inhibitor): 0.005 ± 0.0004 ΔA412/min | Rate, single replicate (TGR [1]; [5]): 0.004865 and 0.004625 and 0.005262 | avg rate (TGR [1]; [5]): 0.004917 | Rate, single replicate (TGR [1]; [6]): 0.01865 and 0.01872 and 0.01883 | avg rate (TGR [1]; [6]): 0.01873 | Rate, single replicate (TGR [1]; [7]): 0.02703 and 0.02752 and 0.02778 | avg rate (TGR [1]; [7]): 0.02744 | Rate, single replicate (TGR [1]; [8]): 0.03299 and 0.03283 and 0.0326 | avg rate (TGR [1]; [8]): 0.03281 | Rate, single replicate (TGR [1]; [9]): 0.02949 and 0.03026 and 0.03016 | avg rate (TGR [1]; [9]): 0.02997 | Rate, single replicate (TGR [1]; [10]): 0.006166 and 0.006168 and 0.006055 | avg rate (TGR [1]; [10]): 0.00613 | Rate, single replicate (TGR [1]; [11]): 0.014 and 0.01379 and 0.01325 | avg rate (TGR [1]; [11]): 0.01368 | Rate, single replicate (TGR [1]; [12]): 0.01713 and 0.02008 | avg rate (TGR [1]; [12]): 0.01811 | Rate, single replicate (TGR [1]; [13]): 0.02098 and 0.02124 and 0.02207 | avg rate (TGR [1]; [13]): 0.02143 | Rate, single replicate (TGR [1]; [14]): 0.009276 and 0.01989 and 0.01984 | avg rate (TGR [1]; [14]): 0.01634 | Rate, single replicate (TGR [1]; [15]): 0.002823 and 0.003641 | avg rate (TGR [1]; [15]): 0.003232 | Rate, single replicate (TGR [1]; [16]): 0.004132 and 0.003931 and 0.003739 | avg rate (TGR [1]; [16]): 0.003934 | Rate, single replicate (TGR [1]; [17]): 0.004888 and 0.004427 and 0.004285 | avg rate (TGR [1]; [17]): 0.004533 | Rate, single replicate (TGR [1]; [18]): 0.005567 and 0.005953 and 0.005104 | avg rate (TGR [1]; [18]): 0.005541 | Rate, single replicate (TGR [1]; [19]): 0.006433 and 0.00613 and 0.007161 | avg rate (TGR [1]; [19]): 0.006575 | mode of inhibition (NADPH varied) (TGR [1]): uncompetitive inhibition | mode of inhibition (NADPH varied) (TGR [1]; listed as 7 (9VP108)): uncompetitive behavior | Rate, no NADPH (TGR [2]; preincubation no NADPH): 0.05983 and 0.05966 and 0.05987 | Rate, with NADPH (TGR [2]; preincubation with NADPH): 0.003086 and 0.003742 and 0.002131 | NADPH consumption (rate/ΔOD340) (TGR [3]): -0.0008479 and -0.0008204 and -0.0008408 | Superoxide production, Pyrogallol red consumption monitored ΔA540 (TGR [4]; condition not given): -0.0001477 and -0.0001374 and -0.0001423 | Superoxide production, Pyrogallol red consumption monitored ΔA540 (TGR [4]; second of the two columns per substance (condition not given)): -5.501e-5 and -2.739e-5 and -2.749e-5
